Numbers after ± are expanded uncertainties.

The conditions of series [1]: 100 kPa, Liquid, Vibrating tube method.
A short description of series [2]: mn = molality of the nth substance listed, in mol/kg. Conditions: 100 kPa, Liquid, Vibrating tube method, m2 = 0.

As a reminder, the mass density is mass per unit of volume. In the case of `CCCCO` [butan-1-ol], the mass density in series [1] (283.15 K) is reported as 817.103 ± 0.22 kg/m3; in series [1] (288.15 K) it was 813.337 ± 0.22 kg/m3; in series [1] (293.15 K) it was 809.548 ± 0.22 kg/m3; in series [1] (298.15 K) it was 805.738 ± 0.22 kg/m3; in series [1] (303.15 K) it was 801.901 ± 0.22 kg/m3; in series [1] (308.15 K), 798.032 ± 0.22 kg/m3. In addition, the mass density in series [1] (313.15 K) is listed as 794.128 ± 0.23 kg/m3; in series [1] (318.15 K), 790.181 ± 0.23 kg/m3.
For `CCCCO` [butan-1-ol] + CCCCn1cc[n+](C)c1.F[B-](F)(F)F, the mass density in series [2] (283.15 K) was found to be 817.103 ± 0.23 kg/m3; in series [2] (288.15 K), 813.337 ± 0.23 kg/m3; in series [2] (293.15 K) it was 809.548 ± 0.23 kg/m3; in series [2] (298.15 K) it was 805.738 ± 0.23 kg/m3; in series [2] (303.15 K) it was 801.901 ± 0.23 kg/m3; in series [2] (308.15 K), 798.032 ± 0.23 kg/m3. The values for the mass density in series [2] (313.15 K) and in series [2] (318.15 K) were 794.128 ± 0.23 kg/m3 and 790.181 ± 0.23 kg/m3, respectively.
As to `CCCCO` [butan-1-ol] + CCn1cc[n+](C)c1.F[B-](F)(F)F, the mass density in series [2] (283.15 K) amounted to 817.103 ± 0.23 kg/m3; in series [2] (288.15 K), 813.337 ± 0.23 kg/m3; in series [2] (293.15 K), 809.548 ± 0.23 kg/m3; in series [2] (298.15 K), 805.738 ± 0.23 kg/m3; in series [2] (303.15 K) it was 801.901 ± 0.23 kg/m3; in series [2] (308.15 K), 798.032 ± 0.23 kg/m3. Also, the mass density is 794.128 ± 0.23 kg/m3 in series [2] (313.15 K) and 790.181 ± 0.23 kg/m3 in series [2] (318.15 K).

Values taken from the NIST ThermoML archive (doi:10.1016/j.jct.2015.12.029).
